The text below walks through data of publication PMC11784013, “Potassium molybdate blocks APN-dependent coronavirus entry by degrading receptor via PIK3C3-mediated autophagy” (Journal of Virology, 2024).

Entries after “also recorded” stand apart in the source; their conditions may differ.

The subject of test [1] is APN. The test can be described thus: APN expression in HEK-293T cells (western blot). It is filed as cell-based, human. As to conditions: for APN level, western blot quantified by Image J, relative to no PM (=1): PM 10 mM. How it is done: Fig. S6. PM degrades human and mouse-derived APN expression. (A and B) HEK-293T cells (A) and […] (B) were treated with PM (10 mM) for 8 h or 16 h respectively, APN expression was measured by western blot. All western blot results were calculated by Image J. All experiments were […]
PM(10mM) - + - + PM(10mM) - + - + […]

Test [2] deals with PRCV. The test can be described thus: PRCV entry assay in ST cells. The format is cell-based, porcine respiratory coronavirus. To be noted: PM 10 mM, PRCV 0.1 MOI, 1 or 2 h at 37°C, RT-qPCR and IFA. As for the experimental part: Fig. S4. […] (A and B) Entry assay. ST cells were infected with 0.1
MOI PRCV for 1 h at 4 °C, and were then treated with PM (10 mΜ) or H2O for 1 h or 2 h at 37 °C. The cells samples were washed using sodium citrate buffer and detected by RT-qPCR (A) and IFA (B), Scale bar: 50 μm /5 μm. Results are presented as mean ± SD of data from three independent experiments ***, (also on this page, place not known: 0.0 0.5 1.0 1.5 Relative genomic RNA level *** *** DAPIPRCV PM H2O 1h 2h 1 2 3 4 5 H2O PM Viral load (log copies/ul) *** *** 1h 2h CollectedPM/H2O) […]

Test [3] deals with TGEV. Description: Time-of-drug-addition assay with TGEV in ST cells (inactivation, adsorption, penetration, replication, release). It is filed as cell-based, transmissible gastroenteritis virus. As for the experimental part: Fig 4 PM dampens TGEV infection by mainly blocking viral entry. (A) Inactivated assay. TGEV (0.1 MOI, red bar) and PM (10 mΜ) or H2O (blue bar) were mixed and incubated at 37°C for 3 and 5 h, respectively, and then the mixtures were added into ST cells. After incubation at 37°C for another 1 h, culture supernatants were replaced with fresh culture medium for 17 h at 37°C. After washing with PBS, the mRNA levels and viral load of TGEV N protein were measured by RT-qPCR. (B) Adsorption assay. ST cells were pretreated with PM (10 mΜ) or H2O (blue bar) for 1 h at 37°C, and then the media were replaced by a mixture of PM (10 mΜ) or H2O and TGEV (5 MOI, red bar) for 0.5 or 1 h at 4°C. After washing with PBS, the genomic RNA levels and viral load of TGEV N protein were measured by RT-qPCR. (C and D) Penetration assay. ST cells were infected with 5 MOI TGEV (red bar) for 1 h at 4°C and were then treated with PM (10 mΜ) or H2O (blue bar) for 1 or 2 h at 37°C after washing with PBS. The cell samples were washed using sodium citrate buffer and tested through RT-qPCR (C) and IFA (D), scale bar: 50 µm/5 µm. (E) Replication assay. ST cells infected with 5 MOI TGEV (red bar) were incubated at 37°C for 3 h and washed with sodium citrate buffer. Then, cells were treated with PM (10 mΜ) or H2O (blue bar) for 5 or 13 h. The cells were harvested and examined by RT-qPCR. (F) Release assay. ST cells were infected with 5 MOI TGEV (red bar) for 16 h and then PM (10 mΜ) or H2O (blue bar) was added to the cells for 1 or 2 h. qRT-PCR was used to test the mRNA levels and viral load of the virus in the supernatant. Results are presented as mean ± SD of data from three independent experiments. ***, P ≤ 0.001; ns, no significance. […]
red bar) and PM (10 mΜ) or H2O (blue bar) were mixed and incubated at 37 °C for 3 h and 5 h respectively and then the mixtures were added into ST cells. After incubation at 37°C for another 1 h, culture supernatants were replaced with fresh culture medium for 17 h at 37°C. Viral titers were detected by TCID50. (B) Release assay. ST cells were infected with 0.1 MOI TGEV (red bar) for 16 h and then PM (10 mΜ) or H2O (blue bar) was added to the cells for 1 h or 2 h. TCID50 was used to test the viral titers in supernatant. Results are presented as mean ± SD of data from three independent experiments ns, no significant.
(also on this page, place not known: 3h 5h 0 2 4 6 8 H2O PM log10 TCID50/ml ns ns 0 2 4 6 8 H2O PM log10 TCID50/ml ns ns -3h-5h 17h 18h CollectedPM/H2O) […]

For test [4], the system named is PEDV LJX 01/2014. The test can be described thus: PEDV infection of Vero-E6 cells (TCID50, western blot). As to conditions: TCID50 and western blot. The format is cell-based, porcine epidemic diarrhea virus. How it is done: Fig 1 PM inhibits TGEV and PRCV infection in ST cells. (A) A cytotoxicity assay of PM in ST cells. ST cells cultured in a 96-well plate were incubated with different concentrations of PM for 24 h, which was tested by Cell Counting Kit 8. (B) Time course for PM inhibiting TGEV or PRCV or PEDV infection assay. (C–F) The ST cells, pretreated with PM at the indicated concentrations for 1 h were infected with TGEV Miller (0.1 MOI) or PRCV (0.1 MOI) for 1 h and were again treated with PM at 37°C for 17 h. The cell samples were collected and examined by real-time quantitative PCR (RT-qPCR), TCID50, western blot (C and D), and immunofluorescence assay (IFA) (E and F), scale bar: 50 µm. (G) Vero-E6 cells were treated with indicated PM and infected with PEDV LJX 01/2014 according to the time course of Fig. 1B, which was detected by TCID50 and western blot. Results are presented as mean ± SD of data from three independent experiments. ns, no significant; **, P ≤ 0.01; ***, P ≤ 0.001.
On the technique in general: Immunoblotting shows a protein as a band on a membrane.

With `[K+].[K+].[O]=[Mo](=[O])([O-])[O-]` [PM, potassium molybdate], the figures for the “APN level, western blot quantified by Image J, relative to no PM (=1)” value in test [1] (8 h) and in test [1] (16 h) were 0.42 and 0.23, respectively. For the same compound, the “human APN expression” value in test [1] (PM for 8 and 16 h) is “also decreased human and mouse-derived APN expression”. Further, in test [2], the “PRCV entry (internalization)” value is “blocks PRCV internalization; also recorded: The same results were also demonstrated for PRCV infection”. Further, the “direct inactivation of TGEV (inactivated assay)” value in test [3] (PM 10 mM mixed with TGEV 0.1 MOI at 37°C for 3 and 5 h, RT-qPCR, TCID50) is “cannot inactivate TGEV and affect viral release”. Moreover, in test [3] (ST cells, PM 10 mM added 16 h after infection for 1 or 2 h, RT-qPCR, TCID50 of supernatant), the TGEV release result is “cannot inactivate TGEV and affect viral release; also recorded: uninfluential in virus adsorption and release”. The TGEV adsorption result in test [3] (ST cells, PM 10 mM, TGEV 5 MOI, 0.5 or 1 h at 4°C, RT-qPCR) is “uninfluential in virus adsorption and release”. For the same compound, in test [3] (ST cells, PM 10 mM, TGEV 5 MOI, 1 or 2 h at 37°C, RT-qPCR and IFA), the “TGEV entry (penetration assay)” value is given as “significantly inhibited TGEV entry”. Moreover, the TGEV replication result in test [3] (ST cells, PM 10 mM, TGEV 5 MOI, PM for 5 or 13 h from 3 h after infection, RT-qPCR) is “moderately restricted viral replication”. The PEDV infection result in test [4] was “unable to repress PEDV infection”.
